The source of these data is US11369596B2, “Methods of treating a neurodegenerative disease in a mammal in need thereof” (Thomas Jefferson University, priority 2013, dated 2022).

For data set [1], the system named is SOD1-G93A mice. As for the experimental part:
Drug Treatment and Survival Analysis:
Baseline and study measures were recorded for weight, grip strength, food consumption, and survival. Determination of end-stage was the inability for a mouse to right itself after 30 seconds of being placed on its side.

Another data set concerns liver of SOD1-G93A mice. Particulars: mouse, in vivo. As for the experimental part: Periodic Acid Schiff Staining:
Saline perfused liver was postfixed with 4% paraformaldehyde for 24 h followed by 24 h incubation in 30% sucrose solution, embedded in OCT solution, and stored at −80° C. until sectioned (10 μm thickness). Sections were hydrated with water, immersed in PAS solutions (Sigma; 395) for 5 min at room temperature, and washed in water. Sections were immersed for 4 min in Schiff's reagent and washed in water for 5 min. Sections were counterstained with hematoxylin solution, dehydrated in ethanol and HemoD solution, mounted, and imaged.

Data set [2] relates to SOD1-G93A mice. The experiment in a line: Compound muscle action potential (CMAP) recordings. The conditions noted are these: 140 day SOD1-G93A mice. Format: in vivo. The source says:
Compound Muscle Action Potential (CMAP) Recordings:
Mice were anesthetized with 1% isoflurane and 0.5% oxygen. Following dermatomoty, stainless steel-stimulating needle electrodes were inserted at the sciatic notch, near the sciatic nerve. A ground electrode was placed subcutaneously in the back, and a reference electrode placed subcutaneously at the ankle. The sciatic nerve was stimulated (0.2 ms duration; 1.6 mV amplitude) and the response recorded via a needle electrode inserted into the plantar muscle in the medial half of the foot, following the line connecting the first and fifth tarsal/metatarsal joints. Data was collected using ADI Powerlab 8/30 stimulator and BioAMP amplifier (ADInstruments, Colorado Springs, Colo.) and analyzed using Scope 3.5.6 (ADInstruments). The compound muscle action potential (M-wave) amplitude was measured from baseline to peak. Data was averaged between left and right hind limb traces.

Another data set deals with ALS. Particulars: ALS patients; cited from earlier work.

In the case of `COc1cc2c(cc1OC)CN(CCc1ccc(NC(=O)c3cccc4c(=O)c5cccc(OC)c5[nH]c34)cc1)CC2` [elacridar, N-[4-[2-(3,4-dihydro-6,7-dimethoxy-2(1H)-isoquinolinyl)ethyl]phenyl]-9,10-dihydro-5-methoxy-9-oxo-4-acridine carboxamide], in the data set on SOD1-G93A mice [1] (chronic elacridar alone, beginning at disease onset, SOD1-G93A mice), the “effect on disease progression / survival” value is listed as “did not alter disease progression”. Further, the “safety of chronic treatment” value with SOD1-G93A mice [1] (mouse, in vivo) is on record as “safe”. Further, in the data set on liver of SOD1-G93A mice, the “liver toxicity (periodic acid Schiff staining)” value is reported as “did not cause liver toxicity”.

In the data set with SOD1-G93A mice [2], `Nc1nc2ccc(OC(F)(F)F)cc2s1` [riluzole, 6-(trifluoromethoxy)benzothiazol-2-amine] yielded a CMAP peak amplitude of 5.00±0.67 mV. In the data set on ALS, the “slowing of disease progression” value was 3-9 months.
